Where a name gives a salt, the structure may show the parent alone. Read-outs that look alike come from different tables or passages of the source. Bridge positions count the residues as written; N and C are the ends. Square brackets hold non-standard residues; d marks the D form. Peptide text beside a SMILES is read from it. * marks the point of attachment. ξ: configuration not given here. X18 = O=C([C@H]1CC[C@H](O)CC1)*; Thr(3ξ) = CC(O)[C@H](N)C(=O)O; Dab = NCC[C@H](N)C(=O)O; X23 = O=C(CCCN1CCOCC1)*
Legend:
Assay type in all cases: cell-based
Klebsiella pneumoniae [1] = experiment: MIC, sole activity (no second agent); details: for MIC: Klebsiella pneumoniae, Table 7F, second agent none
Procedure: (§1) To evaluate the potency and spectrum of the compounds both alone and in combination with another agent, susceptibility testing was performed against up to four strains of each of the four Gram negative pathogens, Escherichia coli, Pseudomonas aeruginosa, Klebsiella pneumoniae and Acinetobacter baumannii.
(§2) The inoculum was prepared by making a direct suspension of isolated colonies (selected from an 18-24 hour Mueller-Hinton agar plate) adjusted to the 0.5 McFarland standard.
(§3) The assays were performed in duplicate.
(§4) In cases where the duplicate values varied by less than 2-fold, the lower of the two values is reported. If a variation of greater than 2-fold was observed, the assay was considered non-valid. Several of the compounds were subjected to multiple tests, and where this is the case, the MIC reflects the modal value obtained.
(§5) MICs were determined as described herein, except that a different supplier of Cation-adjusted MHB was used. […] Values are reported relative to Polymyxin B.

Acinetobacter baumannii = experiment: MIC, sole activity (no second agent); details: for MIC A. baumannii ATCC BAA-747 / MIC A. baumannii NCTC 13424: Table 6A, no second agent, different supplier of Cation-adjusted MHB
Procedure: as §1, §2, §3, §4, §5

Escherichia coli = experiment: MIC, sole activity (no second agent); details: for MIC: Escherichia coli, Table 7F, second agent none
Procedure: as §1, §2, §3, §4, §5

Pseudomonas aeruginosa [2] = experiment: MIC, sole activity (no second agent)
Procedure: as §1, §2, §3, §4, §5

Klebsiella pneumoniae [3] = experiment: MIC, compound in combination with a second agent (broth microdilution); details: 1:1 (wt:wt) combination with Rifampicin, MIC = total drug concentration; for MIC K. pneumoniae ATCC-BAA-2146: strain ATCC-BAA-2146; for MIC K. pneumoniae CCUG-59348: strain CCUG-59348
Procedure: as §1
(§6) Ratios of components in a combination, such as 1:1, refers to a weight to weight ratio. The minimum inhibitory concentration (MIC) refers to the total drug concentration (e.g. test compound plus second agent, such as Rifampicin).
as §2, §3, §4
(§7) The minimum inhibitory concentration refers to the total drug concentration (e.g. test compound plus Rifampicin). The compounds are used at equal mass within the combination. The weight refers to the mass of compound as used, for example the Example Compounds are used in their TFA or sulphate salt forms.
(§8) MICs refer to the total drug concentration. Thus, where a 1:1 combination is used, this is the amount of the test compound plus the second agent. For comparison, the MIC values for the second agent alone are also given.

Pseudomonas aeruginosa [4] = experiment: as above; details: 1:1 (wt:wt) combination with Rifampicin; MIC = total drug concentration; strain CCUG 59626
Procedure: as §1, §6, §2, §3, §4, §7, §8

[5] = Table 6A, no second agent, different supplier of Cation-adjusted MHB
[6] = in the absence of Rifampicin, strain ATCC 4352
[7] = in the absence of Rifampicin, strain ATCC25922
[8] = in the absence of Rifampicin, strain ATCC27853

Row | Compound | MIC K. pneumoniae ATCC 4352 (Klebsiella pneumoniae [1]; [5]) | MIC K. pneumoniae ATCC BAA-2146 (Klebsiella pneumoniae [1]; [5]) | MIC A. baumannii ATCC BAA-747 (Acinetobacter baumannii) | MIC A. baumannii NCTC 13424 (Acinetobacter baumannii) | MIC E. coli NCTC 13441 (Escherichia coli; [5]) | MIC P. aeruginosa ATCC 27853 (Pseudomonas aeruginosa [2]; [5]) | MIC P. aeruginosa CCUG 59347 (Pseudomonas aeruginosa [2]; [5]) | MIC E. coli ATCC25922 (Escherichia coli; [5]) | further results
1 | 2-(1- (Aminomethyl)cyclohexyl) ethanoyl Polymyxin B nonapeptide [Example A30] | 0.5 micrograms/mL | 1 micrograms/mL | 8 micrograms/mL | 8 micrograms/mL | 1 micrograms/mL | 0.5 micrograms/mL | 1 micrograms/mL |  | 
2 | 2-(1- Hydroxycyclohexyl)ethanoyl polymyxin B nonapeptide [Example A15] | 4 micrograms/mL |  | >8 micrograms/mL | >8 micrograms/mL | 8 micrograms/mL | 4 micrograms/mL | 8 micrograms/mL | 8 micrograms/mL | 
3 | 2-(R)-(2-amino-2- cyclohexyl)ethanoyl polymyxin B nonapeptide [Example A38] | 0.5 micrograms/mL | 2 micrograms/mL | 1 micrograms/mL | 2 micrograms/mL | 2 micrograms/mL | 0.5 micrograms/mL | 1 micrograms/mL | 0.5 micrograms/mL | 
4 | 2-(RS)-2-aminooctyl polymyxin B decapeptide [Example A5] | 0.5 micrograms/mL | 0.5 micrograms/mL | 1 micrograms/mL | 2 micrograms/mL |  | 0.25 micrograms/mL | 0.5 micrograms/mL | 0.5 micrograms/mL | 
5 | 2-Aminomethylbenzoyl polymyxin B nonapeptide [Example A31] | 2 micrograms/mL | >8 micrograms/mL | >8 micrograms/mL | >8 micrograms/mL | 2 micrograms/mL | 0.5 micrograms/mL | 2 micrograms/mL | 8 micrograms/mL | 
6 | 3-(R)-3-Amino-5- methylhexanoyl polymyxin B nonapeptide [Example A45] | 1 micrograms/mL |  | >8 micrograms/mL | >8 micrograms/mL | 2 micrograms/mL | 0.5 micrograms/mL | 1 micrograms/mL | 2 micrograms/mL | 
7 | 3-(RS)-3-amino octanoyl polymyxin B nonapeptide. Isomer 1 [Example A32] | 0.5 micrograms/mL | 0.25 micrograms/mL | 2 micrograms/mL | 2 micrograms/mL | 0.5 micrograms/mL | 0.5 micrograms/mL | 1 micrograms/mL | 0.5 micrograms/mL | 
8 | 3-Methylpiperidine-3- carbonyl polymyxin B nonapeptide [Example A39] | 8 micrograms/mL | >8 micrograms/mL | >8 micrograms/mL | >8 micrograms/mL | 8 micrograms/mL | 2 micrograms/mL | 4 micrograms/mL | >8 micrograms/mL | 
9 | 4-[3(R,S)-3-Amino-3- cyclohexanepropanamido] piperidine-4-carbonyl polymyxin B nonapeptide [Example A28] | >8 micrograms/mL | >8 micrograms/mL | >8 micrograms/mL | >8 micrograms/mL | >8 micrograms/mL | 2 micrograms/mL | 4 micrograms/mL | >8 micrograms/mL | 
10 | 5-Hydroxypiperidine-3- carbonyl polymyxin B nonapeptide [Example A50] | 0.25 micrograms/mL | 2 micrograms/mL |  | 2 micrograms/mL | 2 micrograms/mL | 1 micrograms/mL | 2 micrograms/mL | 1 micrograms/mL | 
11 | CC[C@H]1OC(=O)[C@H](C)[C@@H](O[C@H]2C[C@@](C)(OC)[C@@H](O)[C@H](C)O2)[C@H](C)[C@@H](O[C@@H]2O[C@H](C)C[C@H](N(C)C)[C@H]2O)[C@](C)(O)C[C@@H](C)CN(C)[C@H](C)[C@@H](O)[C@]1(C)O [Azithromycin, reference compound] |  |  |  |  |  |  |  |  | MIC (Klebsiella pneumoniae [1]; CCUG59349, K. pneumoniae CCUG 59349, read-out: MIC K. pneumoniae CCUG 59349): > 32 µg/mL; MIC (Klebsiella pneumoniae [1]; K. pneumoniae ATCC4352, read-out: MIC K. pneumoniae ATCC4352): 0.25 µg/mL; MIC (Acinetobacter baumannii; Acinetobacter baumannii, NCTC13424, Table 7F, A. baumannii NCTC 13424, second agent none): 8 µg/mL; MIC (Escherichia coli; NCTC13441, E. coli NCTC 13441, read-out: MIC E. coli NCTC 13441): > 32 µg/mL; MIC (Escherichia coli; E. coli ATCC25922, read-out: MIC E. coli ATCC25922): 1 µg/mL; MIC (Pseudomonas aeruginosa [2]; Pseudomonas aeruginosa, ATCC10145, Table 7F, P. aeruginosa ATCC 10145, second agent none, read-out: MIC P. aeruginosa ATCC 10145): 32 µg/mL
12 | CC(C)C[C@@H]1NC(=O)[C@@H](Cc2ccccc2)NC(=O)[C@H](CCN)NC(=O)[C@@H](NC(=O)[C@H](CCN)NC(=O)[C@@H](NC(=O)CCCN2CCOCC2)C(C)O)CCNC(=O)[C@H](C(C)O)NC(=O)[C@H](CCN)NC(=O)[C@H](CCN)NC1=O (stereo partly shown) [Example 14, 4- Morpholinylbutanoyl polymyxin B nonapeptide, trifluoroacetate salt] (X23-[Thr(3ξ)][Dab][Dab][Dab][dF]L[Dab][Dab][Thr(3ξ)]; lactam 3-C) |  |  |  |  |  |  |  |  | MIC K. pneumoniae ATCC 4352 (Klebsiella pneumoniae [1]; [6]): >32 micrograms/mL; MIC E. coli ATCC25922 (Escherichia coli; [7]): 4 micrograms/mL; MIC P. aeruginosa ATCC 27853 (Pseudomonas aeruginosa [2]; [8]): 1 micrograms/mL; MIC K. pneumoniae ATCC-BAA-2146 (Klebsiella pneumoniae [3]): 2 micrograms/mL; MIC K. pneumoniae CCUG-59348 (Klebsiella pneumoniae [3]): 16 micrograms/mL; MIC P. aeruginosa CCUG 59626 (Pseudomonas aeruginosa [4]): 0.5 micrograms/mL
13 | CC(C)C[C@@H]1NC(=O)[C@@H](Cc2ccccc2)NC(=O)[C@H](CCN)NC(=O)[C@@H](NC(=O)[C@H](CCN)NC(=O)[C@@H](NC(=O)[C@H]2CC[C@H](O)CC2)C(C)O)CCNC(=O)[C@H](C(C)O)NC(=O)[C@H](CCN)NC(=O)[C@H](CCN)NC1=O (stereo partly drawn) [Example 25, trans-4-hydroxycyclohexane carbonyl polymyxin B nonapeptide] (X18-[Thr(3ξ)][Dab][Dab][Dab][dF]L[Dab][Dab][Thr(3ξ)]; lactam 3-C) |  |  |  |  |  |  |  |  | MIC K. pneumoniae ATCC 4352 (Klebsiella pneumoniae [1]; [6]): 4 micrograms/mL; MIC E. coli ATCC25922 (Escherichia coli; [7]): 8 micrograms/mL; MIC P. aeruginosa ATCC 27853 (Pseudomonas aeruginosa [2]; [8]): 0.125 micrograms/mL; MIC K. pneumoniae ATCC-BAA-2146 (Klebsiella pneumoniae [3]): 1 micrograms/mL; MIC K. pneumoniae CCUG-59348 (Klebsiella pneumoniae [3]): 8 micrograms/mL; MIC K. pneumoniae NCTC 13438 (Klebsiella pneumoniae [3]; strain NCTC 13438): 2 micrograms/mL; MIC P. aeruginosa CCUG 59626 (Pseudomonas aeruginosa [4]): 0.5 micrograms/mL

From US10407467B2, “Polymyxin derivatives and their use in combination therapy together with different antibiotics” (priority 2013, dated 2019)
